Assay results taken from the CheMixHub ionic liquid set.
± gives the uncertainty stated by the source.

Test: xn = mol fraction of the nth substance listed

CN1CCCC1=O + CCCC[n+]1ccn(C)c1.N#C[S-]
101 kPa, x2 = 0
Conditions | viscosity [mPa·s]
288.15 K | 2.133 ± 0.023
298.15 K | 1.791 ± 0.02
308.15 K | 1.549 ± 0.018
318.15 K | 1.285 ± 0.017

CC#N + CCCC[P+](CCCC)(CCCC)CCCC.F[B-](F)(F)F
100 kPa, x2 = 0
Conditions | viscosity [mPa·s]
293.15 K | 0.354 ± 0.021
298.15 K | 0.338 ± 0.02
303.15 K | 0.324 ± 0.02
308.15 K | 0.31 ± 0.019
313.15 K | 0.298 ± 0.018
318.15 K | 0.286 ± 0.017

CC#N + C[N+](C)(C)CCC[N+]1(C)CCCCC1.N#C[N-]C#N.N#C[N-]C#N
100 kPa, x2 = 0
Conditions | viscosity [mPa·s]
288.15 K | 0.382 ± 0.039
298.15 K | 0.348 ± 0.035
303.15 K | 0.333 ± 0.034
333.15 K | 0.266 ± 0.027

CCCC[n+]1ccn(C)c1.F[P-](F)(F)(F)(F)F + CCC(C)=O
298.15 K, 101.3 kPa
Conditions | viscosity [mPa·s]
x2 = 0.3016 | 43.3 ± 1.4
x2 = 0.4024 | 23.55 ± 0.66
x2 = 0.4485 | 18.18 ± 0.49
x2 = 0.6517 | 5.15 ± 0.13

CCCC[n+]1ccn(C)c1.F[P-](F)(F)(F)(F)F + c1ccncc1
298.15 K, 101 kPa, x2 = 0.4915
Conditions | electrical conductivity [S/m] | viscosity [mPa·s]
– | 0.819 ± 0.098 | 21.8 ± 2.2

CCCC[n+]1ccn(C)c1.O=S(=O)([N-]S(=O)(=O)C(F)(F)F)C(F)(F)F + CCCO
298 K, 100 kPa
Conditions | electrical conductivity [S/m] | viscosity [mPa·s]
x1 = 0.02 | 0.137 ± 0.0014 | –
x1 = 0.05 | – | 2.742 ± 0.016
x1 = 0.06 | 0.348 ± 0.0035 | –
x1 = 0.07 | 0.3949 ± 0.0039 | –
x1 = 0.1 | 0.5104 ± 0.0051 | 3.685 ± 0.024
x1 = 0.1996 | – | 5.689 ± 0.047
x1 = 0.2 | 0.7444 ± 0.0074 | –
x1 = 0.3 | 0.8144 ± 0.0081 | –
x1 = 0.3005 | – | 8.179 ± 0.084
x1 = 0.3996 | – | 11.32 ± 0.14
x1 = 0.4 | 0.804 ± 0.08 | –
x1 = 0.4995 | – | 15.01 ± 0.22
x1 = 0.5 | 0.7509 ± 0.0075 | –
x1 = 0.5478 | – | 17.08 ± 0.27
x1 = 0.6 | 0.686 ± 0.0069 | –
x1 = 0.6957 | – | 24.54 ± 0.47
x1 = 0.7 | 0.6239 ± 0.0062 | –
x1 = 0.8 | 0.5324 ± 0.0053 | –
x1 = 0.8024 | – | 32.15 ± 0.69
x1 = 0.9 | 0.461 ± 0.046 | –
x1 = 0.9018 | – | 40.15 ± 0.95
x1 = 1 | – | 49.7 ± 1.3

CCCC[n+]1ccn(C)c1.O=S(=O)([N-]S(=O)(=O)C(F)(F)F)C(F)(F)F + CCCCCCCCCO
Conditions | viscosity [mPa·s]
298 K, 100 kPa, x1 = 1 | 49.7 ± 1.3

CC#N + CC[n+]1ccn(C)c1C.F[B-](F)(F)F
101.3 kPa, x2 = 0
Conditions | viscosity [mPa·s]
293.15 K | 0.361 ± 0.034
298.15 K | 0.346 ± 0.033
303.15 K | 0.332 ± 0.031
308.15 K | 0.32 ± 0.03
313.15 K | 0.309 ± 0.029
318.15 K | 0.298 ± 0.028
323.15 K | 0.288 ± 0.027
328.15 K | 0.279 ± 0.026
333.15 K | 0.271 ± 0.026

CCCCCCCCCCCCCCCC[n+]1ccn(C)c1.[Cl-] + CCCCCCCCCCCC[N+](C)(C)C.[Br-] + O
100 kPa, frequency 0.002 MHz
Conditions | electrical conductivity [S/m]
303.15 K, x1 = 5.946e-05, x2 = 1.478e-05 | 0.025 ± 0.00051
303.15 K, x1 = 7.207e-05, x2 = 1.802e-05 | 0.0286 ± 0.00059
303.15 K, x1 = 9.712e-05, x2 = 2.433e-05 | 0.0355 ± 0.00073
313.15 K, x1 = 6.13e-06, x2 = 2.433e-05 | 0.0202 ± 0.00041
313.15 K, x1 = 7.75e-06, x2 = 1.802e-05 | 0.0184 ± 0.00037
313.15 K, x1 = 2.09e-05, x2 = 2.34e-06 | 0.0146 ± 0.0003
323.15 K, x1 = 9.19e-06, x2 = 2.126e-05 | 0.0259 ± 0.00052

CCCC[n+]1ccn(C)c1.O=S(=O)([N-]S(=O)(=O)C(F)(F)F)C(F)(F)F + CCCC[n+]1ccn(C)c1.N#C[C-](C#N)C#N
100 kPa, x1 = 1
Conditions | viscosity [mPa·s]
283.15 K | 106.8 ± 5.5
288.15 K | 82.2 ± 4.2
293.15 K | 64.5 ± 3.3
298.15 K | 51.6 ± 2.6
303.15 K | 41.9 ± 2.1
308.15 K | 34.6 ± 1.7
313.15 K | 28.9 ± 1.5
318.15 K | 24.5 ± 1.2
323.15 K | 20.9 ± 1.1
328.15 K | 18.05 ± 0.91
333.15 K | 15.72 ± 0.79
338.15 K | 13.8 ± 0.69
343.15 K | 12.2 ± 0.61
348.15 K | 10.86 ± 0.55
353.15 K | 9.72 ± 0.49
358.15 K | 8.75 ± 0.44
363.15 K | 7.93 ± 0.4

CCCC[n+]1ccn(C)c1.F[P-](F)(F)(F)(F)F + CCCC[n+]1ccn(C)c1.O=S(=O)([O-])C(F)(F)F
Conditions | viscosity [mPa·s]
318.15 K, 100 kPa, x1 = 1 | 87.7 ± 2.4

CCCC[n+]1cccc(C)c1.O=S(=O)([N-]S(=O)(=O)C(F)(F)F)C(F)(F)F + CC(C)O
Conditions | electrical conductivity [S/m]
298.15 K, 101.3 kPa, x2 = 0.3381 | 0.642 ± 0.013

CC#N + C[N+](C)(C)CCC[n+]1ccccc1.N#C[N-]C#N.N#C[N-]C#N
100 kPa, x2 = 0
Conditions | viscosity [mPa·s]
328.15 K | 0.275 ± 0.028
333.15 K | 0.266 ± 0.027

CC#N + CCC[N+]1(C)CCCC1.O=S(=O)([N-]S(=O)(=O)C(F)(F)F)C(F)(F)F
101 kPa, x2 = 0
Conditions | viscosity [mPa·s]
278.15 K | 0.411 ± 0.017
288.15 K | 0.38 ± 0.016
298.15 K | 0.346 ± 0.015
308.15 K | 0.311 ± 0.013
318.15 K | 0.279 ± 0.012
328.15 K | 0.248 ± 0.011

CN1CCCC1=O + CCCCCCCCn1cc[n+](C)c1.[Cl-]
100 kPa, x1 = 1
Conditions | viscosity [mPa·s]
293.15 K | 1.853 ± 0.076
318.15 K | 1.259 ± 0.052

CC[n+]1ccn(C)c1.O=S(=O)([O-])O + CC[C@H](C)[C@H](N)C(=O)O + O
viscosity [mPa·s], 100 kPa
Conditions | 293.15 K | 298.15 K | 303.15 K | 308.15 K | 313.15 K
x2 = 0, x1 = 0.0005421 | 1.046 ± 0.033 | 0.929 ± 0.032 | 0.824 ± 0.031 | 0.75 ± 0.031 | 0.678 ± 0.031
x2 = 0, x1 = 0.0009056 | 1.068 ± 0.033 | 0.949 ± 0.032 | 0.843 ± 0.031 | 0.759 ± 0.031 | 0.684 ± 0.031
x2 = 0, x1 = 0.001263 | 1.073 ± 0.032 | 0.966 ± 0.032 | 0.866 ± 0.032 | 0.78 ± 0.031 | 0.697 ± 0.031
x2 = 0.0004219, x1 = 0.0009052 | 1.093 ± 0.032 | 0.961 ± 0.032 | 0.853 ± 0.031 | 0.769 ± 0.031 | 0.693 ± 0.031
x2 = 0.0004673, x1 = 0.001263 | 1.101 ± 0.032 | 0.979 ± 0.032 | 0.878 ± 0.032 | 0.79 ± 0.031 | 0.708 ± 0.031
x2 = 0.0005036, x1 = 0.0005418 | 1.075 ± 0.033 | 0.943 ± 0.032 | 0.837 ± 0.031 | 0.762 ± 0.031 | 0.69 ± 0.031
x2 = 0.0007653, x1 = 0.0009049 | 1.113 ± 0.032 | 0.97 ± 0.032 | 0.862 ± 0.032 | 0.777 ± 0.031 | 0.701 ± 0.031
x2 = 0.0008312, x1 = 0.0005417 | 1.094 ± 0.033 | 0.953 ± 0.032 | 0.845 ± 0.031 | 0.77 ± 0.031 | 0.697 ± 0.031
x2 = 0.000832, x1 = 0.001262 | 1.122 ± 0.032 | 0.989 ± 0.032 | 0.887 ± 0.032 | 0.799 ± 0.031 | 0.716 ± 0.031
x2 = 0.0009488, x1 = 0.0005416 | 1.1 ± 0.033 | 0.956 ± 0.032 | 0.848 ± 0.031 | 0.773 ± 0.031 | 0.7 ± 0.031
x2 = 0.00107, x1 = 0.0009046 | 1.131 ± 0.033 | 0.979 ± 0.032 | 0.87 ± 0.032 | 0.785 ± 0.031 | 0.708 ± 0.031
x2 = 0.001216, x1 = 0.001262 | 1.145 ± 0.032 | 0.999 ± 0.032 | 0.897 ± 0.032 | 0.808 ± 0.031 | 0.724 ± 0.031
x2 = 0.001364, x1 = 0.001262 | 1.154 ± 0.032 | 1.003 ± 0.032 | 0.901 ± 0.032 | 0.812 ± 0.031 | 0.728 ± 0.031
x2 = 0.001515, x1 = 0.0009042 | 1.157 ± 0.033 | 0.991 ± 0.032 | 0.881 ± 0.032 | 0.795 ± 0.031 | 0.717 ± 0.031
x2 = 0.001572, x1 = 0.0005413 | 1.136 ± 0.033 | 0.973 ± 0.032 | 0.864 ± 0.031 | 0.789 ± 0.031 | 0.714 ± 0.031
x2 = 0.001693, x1 = 0.0005412 | 1.143 ± 0.033 | 0.977 ± 0.032 | 0.867 ± 0.031 | 0.792 ± 0.031 | 0.717 ± 0.031
x2 = 0.001746, x1 = 0.001261 | 1.176 ± 0.033 | 1.013 ± 0.032 | 0.91 ± 0.032 | 0.821 ± 0.031 | 0.736 ± 0.031
x2 = 0.001796, x1 = 0.000904 | 1.174 ± 0.033 | 0.999 ± 0.032 | 0.888 ± 0.032 | 0.802 ± 0.031 | 0.724 ± 0.031
x2 = 0.002205, x1 = 0.0009036 | 1.198 ± 0.06 | 1.01 ± 0.049 | 0.898 ± 0.032 | 0.812 ± 0.031 | 0.733 ± 0.031
x2 = 0.002228, x1 = 0.0005409 | 1.174 ± 0.033 | 0.991 ± 0.033 | 0.881 ± 0.032 | 0.805 ± 0.031 | 0.729 ± 0.031
x2 = 0.002256, x1 = 0.001261 | 1.206 ± 0.033 | 1.027 ± 0.032 | 0.923 ± 0.032 | 0.833 ± 0.031 | 0.747 ± 0.031
x2 = 0.002728, x1 = 0.00126 | 1.23 ± 0.11 | 1.04 ± 0.087 | 0.935 ± 0.032 | 0.844 ± 0.031 | 0.758 ± 0.031

CC#N + C=C[n+]1ccn(CC(N)=O)c1.O=S(=O)([N-]S(=O)(=O)C(F)(F)F)C(F)(F)F
Conditions | viscosity [mPa·s]
323.15 K, 100 kPa, x2 = 0 | 0.262 ± 0.053

CC#N + CC[NH3+].O=[N+]([O-])[O-]
Conditions | viscosity [mPa·s]
308.19 K, 100 kPa, x2 = 0 | 0.302 ± 0.019
